Reference: patent publication US20110189758A1, “TRANSFECTION VECTOR” (Anaeropharma Science, Inc., priority 2010, published 2011)
Where two headings read alike, the source gives them in different places.

System: Human breast cancer cell line KPL-1 tumor
Assay type: in vivo, nude mouse

## COc1cccc2c1C(=O)c1c(O)c3c(c(O)c1C2=O)C[C@@](O)(C(=O)CO)C[C@@H]3O[C@H]1C[C@H](N)[C@H](O)[C@H](C)O1 [adriamycine, adriamycin]
Day 0 (grouping)
  Tumor volume, Average: 97.7 mm3
Day 4
  Tumor volume, Average: 133.6 mm3
Day 7
  Tumor volume, Average: 145.4 mm3
Day 11
  Tumor volume, Average: 257.9 mm3
Day 15
  Tumor volume, Average: 415.2 mm3
Day 19
  Tumor volume, Average: 625.2 mm3
Day 21
  Tumor volume, Average: 852.6 mm3
Average tumor volume of group / Group I × 100
  T/C (%) at Day 21: 63.8%
